Experimental data reported in ChEMBL document CHEMBL5344403, “Discovery and evaluation of phenacrylanilide derivatives as novel potential anti-liver fibrosis agents” (Eur J Med Chem, 2022).
Calls of active or inactive are those of the source. The rule behind the calls is not given here.

Experiments:
[1] = Antiproliferative activity against human LX2 cells assessed as cell survival rate at 20 uM incubated for 72 hrs by CCK-8 assay; format: toxicity, cell-based; conditions: LX-2 cells, read-out: Activity
Mus musculus [2] = experiment: Inhibition of epithelial mesenchymal transition in CCL4-induced C57BL/6J mouse hepatic fibrosis model assessed as decrease in vimentin protein expression at 15 to 30 mg/kg, po measured for 3 weeks; format: functional, organism-based; conditions: dose 15-30 mg/kg
Mus musculus [3] = experiment: Anti-hepatic fibrosis activity in CCL4-induced C57BL/6J mouse hepatic fibrosis model assessed as decrease in serum TG level at 15 to 30 mg/kg, po measured for 3 weeks; format: functional, organism-based; conditions: dose 15-30 mg/kg
Mus musculus [4] = experiment: Antifibrotic activity against CCL4-induced C57BL/6J mouse hepatic fibrosis model assessed as reduction in CD11b/Gr-1 in MDSC cells at 15 mg/kg, po measured for 3 weeks by flow cytometry analysis relative to control; format: functional; parameters: scale not given: the % may be the effect or the level left
Mus musculus [5] = experiment: Anti-hepatic fibrosis activity in CCL4-induced C57BL/6J mouse hepatic fibrosis model assessed as reduction in liver weight coefficient at 15 to 30 mg/kg, po measured for 3 weeks; format: functional, organism-based; conditions: dose 15-30 mg/kg
Mus musculus [6] = experiment: Anti-hepatic fibrosis activity in CCL4-induced C57BL/6J mouse hepatic fibrosis model assessed as downregulation of alpha-SMA level in liver at 30 mg/kg, po measured for 3 weeks by immunohistochemical analysis; format: functional, organism-based
[7] = Toxicity in CCL4-induced po dosed C57BL/6J mouse assessed as inflammatory cell infiltration in spleen at 15 to 30 mg/kg, po by H and E staining based analysis; format: organism-based; conditions: in vivo, dose 15-30 mg/kg
[8] = Toxicity in CCL4-induced po dosed C57BL/6J mouse assessed as decrease in spleen weight coefficient; format: organism-based; conditions: in vivo, dose 15-30 mg/kg
[9] = Toxicity in CCL4-induced C57BL/6J mouse assessed as effect on body weight at 15 to 30 mg/kg, po; format: organism-based; conditions: in vivo, dose 15-30 mg/kg
Mus musculus [10] = experiment: Anti-hepatic fibrosis activity in CCL4-induced C57BL/6J mouse hepatic fibrosis model assessed as improvement in liver structural damage at 15 to 30 mg/kg, po measured for 3 weeks by H and E staining based analysis; format: functional, organism-based; conditions: dose 15-30 mg/kg
Mus musculus [11] = experiment: Anti-hepatic fibrosis activity in CCL4-induced C57BL/6J mouse hepatic fibrosis model assessed as downregulation of TGF-beta1 mRNA expression at 30 mg/kg, po measured for 3 weeks by qRT-PCR analysis; format: functional, organism-based
Mus musculus [12] = experiment: Antifibrotic activity against CCL4-induced C57BL/6J mouse hepatic fibrosis model assessed as reduction in CD11b/Gr-1 in MDSC cells at 30 mg/kg, po measured for 3 weeks by flow cytometry analysis relative to control; format: functional; parameters: scale not given: the % may be the effect or the level left
Mus musculus [13] = experiment: Antifibrotic activity against CCL4-induced C57BL/6J mouse hepatic fibrosis model assessed as reduction in F4/80+CD11b+ in macrophage at 15 mg/kg, po measured for 3 weeks by flow cytometry analysis relative to control; format: functional; parameters: scale not given: the % may be the effect or the level left
Mus musculus [14] = experiment: Anti-hepatic fibrosis activity in CCL4-induced C57BL/6J mouse hepatic fibrosis model assessed as reduction in liver injury at 15 to 30 mg/kg, po measured for 3 weeks; format: functional, organism-based; conditions: dose 15-30 mg/kg
Mus musculus [15] = experiment: Anti-hepatic fibrosis activity in CCL4-induced C57BL/6J mouse hepatic fibrosis model assessed as decrease in serum ALT level at 15 to 30 mg/kg, po measured for 3 weeks; format: functional, organism-based; conditions: dose 15-30 mg/kg
Mus musculus [16] = experiment: Antifibrotic activity against CCL4-induced C57BL/6J mouse hepatic fibrosis model assessed as reduction in F4/80+CD11b+ in macrophage at 30 mg/kg, po measured for 3 weeks by flow cytometry analysis relative to control; format: functional; parameters: scale not given: the % may be the effect or the level left
Mus musculus [17] = experiment: Anti-hepatic fibrosis activity in CCL4-induced C57BL/6J mouse hepatic fibrosis model assessed as decrease in serum AST level at 15 to 30 mg/kg, po measured for 3 weeks; format: functional, organism-based; conditions: dose 15-30 mg/kg
Mus musculus [18] = experiment: Anti-hepatic fibrosis activity in CCL4-induced C57BL/6J mouse hepatic fibrosis model assessed as decrease in serum CHO level at 15 to 30 mg/kg, po measured for 3 weeks; format: functional, organism-based; conditions: dose 15-30 mg/kg
LX-2 [19] = experiment: Antifibrotic activity against TGF-beta1 induced human LX2 cells assessed as reduction of alpha-SMA expression at 20 uM pretreated with TGF-beta1 for 1 hr followed by compound addition and measured after 24 hrs by Western blot analysis; format: functional, cell-based
[20] = Toxicity in CCL4-induced po dosed C57BL/6J mouse assessed as inflammatory cell infiltration in lung at 15 to 30 mg/kg, po by H and E staining based analysis; format: organism-based; conditions: in vivo, dose 15-30 mg/kg
Mus musculus [21] = experiment: Anti-hepatic fibrosis activity in CCL4-induced C57BL/6J mouse hepatic fibrosis model assessed as downregulation of alpha-SMA level at 30 mg/kg, po measured for 3 weeks by Western blot analysis; format: functional, organism-based
[22] = Toxicity in CCL4-induced C57BL/6J mouse assessed as effect on creatinine level at 15 to 30 mg/kg, po; format: organism-based; conditions: in vivo, dose 15-30 mg/kg
Mus musculus [23] = experiment: Antifibrotic activity against CCL4-induced C57BL/6J mouse hepatic fibrosis model assessed as reduction in CD69/CD4 in Th1 cell cells at 30 mg/kg, po measured for 3 weeks by flow cytometry analysis relative to control; format: functional; parameters: scale not given: the % may be the effect or the level left
Mus musculus [24] = experiment: Anti-hepatic fibrosis activity in CCL4-induced C57BL/6J mouse hepatic fibrosis model assessed as improvement in inflammatory cell infiltration at 15 to 30 mg/kg, po measured for 3 weeks by H and E staining based analysis; format: functional, organism-based; conditions: dose 15-30 mg/kg
LX-2 [25] = experiment: Antifibrotic activity against TGF-beta1 induced human LX2 cells assessed as reduction of fibronectin expression at 20 uM pretreated with TGF-beta1 for 1 hr followed by compound addition and measured after 24 hrs by Western blot analysis; format: functional, cell-based
Mus musculus [26] = experiment: Inhibition of epithelial mesenchymal transition in CCL4-induced C57BL/6J mouse hepatic fibrosis model assessed as […] in N-cadherin protein expression at 15 to 30 mg/kg, po measured for 3 weeks; format: functional, organism-based; conditions: dose 15-30 mg/kg
Mus musculus [27] = experiment: Antifibrotic activity against CCL4-induced C57BL/6J mouse hepatic fibrosis model assessed as reduction in CD69/CD4 in Th1 cell cells at 15 mg/kg, po measured for 3 weeks by flow cytometry analysis relative to control; format: functional; parameters: scale not given: the % may be the effect or the level left
[28] = Antiproliferative activity against human LO2 cells assessed as inhibition of cell growth incubated for 72 hrs by CCK-8 assay; format: toxicity, cell-based; conditions: LO2 (L02) cells
[29] = Toxicity in CCL4-induced po dosed C57BL/6J mouse assessed as inflammatory cell infiltration in heart at 15 to 30 mg/kg, po by H and E staining based analysis; format: organism-based; conditions: in vivo, dose 15-30 mg/kg
Mus musculus [30] = experiment: Anti-hepatic fibrosis activity in CCL4-induced C57BL/6J mouse hepatic fibrosis model assessed as decrease in collagen deposition in liver at 15 to 30 mg/kg, po measured for 3 weeks by sirius red staining based analysis; format: functional, organism-based; conditions: dose 15-30 mg/kg
Mus musculus [31] = experiment: Anti-hepatic fibrosis activity in CCL4-induced C57BL/6J mouse hepatic fibrosis model assessed as decrease in collagen deposition in liver at 15 to 30 mg/kg, po measured for 3 weeks by Masson's trichome staining based analysis; format: functional, organism-based; conditions: dose 15-30 mg/kg
[32] = Toxicity in CCL4-induced C57BL/6J mouse assessed as effect on urea level at 15 to 30 mg/kg, po; format: organism-based; conditions: in vivo, dose 15-30 mg/kg
Mus musculus [33] = experiment: Anti-hepatic fibrosis activity in CCL4-induced C57BL/6J mouse hepatic fibrosis model assessed as downregulation of alpha-SMA mRNA expression at 30 mg/kg, po measured for 3 weeks by qRT-PCR analysis; format: functional, organism-based
Mus musculus [34] = experiment: Antifibrotic activity against CCL4-induced C57BL/6J mouse hepatic fibrosis model assessed as reduction in CD69/CD8 in […] cell cells at 30 mg/kg, po measured for 3 weeks by flow cytometry analysis relative to control; format: functional; parameters: scale not given: the % may be the effect or the level left
Mus musculus [35] = experiment: Antifibrotic activity against CCL4-induced C57BL/6J mouse hepatic fibrosis model assessed as reduction in CD69/CD8 in […] cell cells at 15 mg/kg, po measured for 3 weeks by flow cytometry analysis relative to control; format: functional; parameters: scale not given: the % may be the effect or the level left
[36] = Toxicity in CCL4-induced C57BL/6J mouse assessed as effect on uric acid level at 15 to 30 mg/kg, po; format: organism-based; conditions: in vivo, dose 15-30 mg/kg
Mus musculus [37] = experiment: Anti-hepatic fibrosis activity in CCL4-induced C57BL/6J mouse hepatic fibrosis model assessed as downregulation of collagen level at 30 mg/kg, po measured for 3 weeks by Western blot analysis; format: functional, organism-based
Mus musculus [38] = experiment: Anti-hepatic fibrosis activity in CCL4-induced C57BL/6J mouse hepatic fibrosis model assessed as downregulation of collagen level in liver at 30 mg/kg, po measured for 3 weeks by immunohistochemical analysis; format: functional, organism-based
LX-2 [39] = experiment: Inhibition of TGF-beta1-induced human LX2 activation at 20 uM pretreated with TGF-beta1 for 1 hr followed by compound addition and measured after 72 hrs by CCK-8 assay relative to control; format: functional
Mus musculus [40] = experiment: Anti-hepatic fibrosis activity in CCL4-induced C57BL/6J mouse hepatic fibrosis model assessed as downregulation of collagen mRNA expression at 30 mg/kg, po measured for 3 weeks by qRT-PCR analysis; format: functional, organism-based

With COc1ccc(/C=C/C(=O)Nc2cccc(C(=O)NC3CCCC3)c2)cc1 the viability at 72 h, 20 µM [1] was 77.5%, the Activity (Mus musculus [2]) was “Active” and the Activity (Mus musculus [3]) was “Active”. The Activity (Mus musculus [4]) was 1.9%, the Activity (Mus musculus [5]) was “Active” and the Activity (Mus musculus [6]) was “Active”. For the same compound, the Activity [7] was “Non-Toxic”, the Activity [8] was “Dose-Dependent Effect” and the Activity [9] was “Non-Toxic”. For the same compound, the Activity (Mus musculus [10]) was “Active”, the Activity (Mus musculus [11]) was “Active” and the Activity (Mus musculus [12]) was 1.86%. The Activity (Mus musculus [13]) was 5.11%, the Activity (Mus musculus [14]) was “Active” and the Activity (Mus musculus [15]) was “Active”. For the same compound, the Activity (Mus musculus [16]) was 4.8%, the Activity (Mus musculus [17]) was “Active” and the Activity (Mus musculus [18]) was “Active”. For the same compound, the Activity (LX-2 [19]) was “Active”, the Activity [20] was “Non-Toxic” and the Activity (Mus musculus [21]) was “Active”. The Activity [22] was “Non-Toxic”, the Activity (Mus musculus [23]) was 1.19% and the Activity (Mus musculus [24]) was “Active”. The Activity (LX-2 [25]) was “Active”, the inhibition (Mus musculus [26]) was “Active” and the Activity (Mus musculus [27]) was 1.21%. For the same compound, the IC50 at 72 h [28] was 105 µM, the Activity [29] was “Non-Toxic” and the Activity (Mus musculus [30]) was “Active”. For the same compound, the Activity (Mus musculus [31]) was “Active”, the Activity [32] was “Non-Toxic” and the Activity (Mus musculus [33]) was “Active”. For the same compound, the Activity (Mus musculus [34]) was 1.45%, the Activity (Mus musculus [35]) was 1.54% and the Activity [36] was “Non-Toxic”. For the same compound, the Activity (Mus musculus [37]) was “Active”, the Activity (Mus musculus [38]) was “Active” and the inhibition at 20 µM (LX-2 [39]) was 30.3%. The Activity (Mus musculus [40]) was “Active”.
